Measurements reported in patent US20250345384A1, “STABLE CYCLODEXTRIN FREE CARFILZOMIB FORMULATION” (AMGEN INC., priority 2020, published 2025).
In brackets after ≈: the same amount, converted by molar mass.

Key:
[1] = Visual comparison of carfilzomib in water, cyclodextrin and cyclodextrin-free formulations (FIG. 2); type: physicochemical; conditions: CFZ-API concentration of 2 mg/mL
Description: Carfilzomib (CFZ) is a proteasomal inhibitor and active ingredient of KYPROLIS®, a lyophilized drug product which is for the treatment of multiple myeloma. The current commercial formulation of KYPROLIS contains CAPTISOL®, which is a cyclodextrin used to help solubility the CFZ-API. The present invention provides a stable, cyclodextrin-free formulations for CFZ-API in an aqueous solution which is suitable for injection. FIG. 2 illustrates (a) insoluble CFZ-API in water (b) current commercial KYPROLIS formulation containing CAPTISOL (middle vial); and (c) the cyclodextrin free chlorobutanol formulation of the invention (right vial). Each sample contains CFZ-API concentration of 2 mg/mL.

physchem = conditions: pH 7, water

- Visual solubility in water [1]: insoluble
- solubility (physchem): 2 µg/mL (≈ 2.78 µM)
SMILES: CC(C)C[C@H](NC(=O)[C@H](CCc1ccccc1)NC(=O)CN1CCOCC1)C(=O)N[C@@H](Cc1ccccc1)C(=O)N[C@@H](CC(C)C)C(=O)[C@@]1(C)CO1 [CFZ-API, Carfilzomib]
